Data from ChEMBL document CHEMBL5653615 (J Biol Chem, 2013).

What was measured:
[1] = target: Dual specificity mitogen-activated protein kinase kinase 2 (Homo sapiens) (UniProt P36507); assay: Inhibition of human MEK2 at 1.82 nM by HotSpot assay relative to control
[2] = target: T1, Mitogen-activated protein kinase kinase kinase kinase 2 (Homo sapiens) (UniProt Q12851); assay: Inhibition of human GCK at 1.82 nM by HotSpot assay relative to control
T1 sequence (whole entry): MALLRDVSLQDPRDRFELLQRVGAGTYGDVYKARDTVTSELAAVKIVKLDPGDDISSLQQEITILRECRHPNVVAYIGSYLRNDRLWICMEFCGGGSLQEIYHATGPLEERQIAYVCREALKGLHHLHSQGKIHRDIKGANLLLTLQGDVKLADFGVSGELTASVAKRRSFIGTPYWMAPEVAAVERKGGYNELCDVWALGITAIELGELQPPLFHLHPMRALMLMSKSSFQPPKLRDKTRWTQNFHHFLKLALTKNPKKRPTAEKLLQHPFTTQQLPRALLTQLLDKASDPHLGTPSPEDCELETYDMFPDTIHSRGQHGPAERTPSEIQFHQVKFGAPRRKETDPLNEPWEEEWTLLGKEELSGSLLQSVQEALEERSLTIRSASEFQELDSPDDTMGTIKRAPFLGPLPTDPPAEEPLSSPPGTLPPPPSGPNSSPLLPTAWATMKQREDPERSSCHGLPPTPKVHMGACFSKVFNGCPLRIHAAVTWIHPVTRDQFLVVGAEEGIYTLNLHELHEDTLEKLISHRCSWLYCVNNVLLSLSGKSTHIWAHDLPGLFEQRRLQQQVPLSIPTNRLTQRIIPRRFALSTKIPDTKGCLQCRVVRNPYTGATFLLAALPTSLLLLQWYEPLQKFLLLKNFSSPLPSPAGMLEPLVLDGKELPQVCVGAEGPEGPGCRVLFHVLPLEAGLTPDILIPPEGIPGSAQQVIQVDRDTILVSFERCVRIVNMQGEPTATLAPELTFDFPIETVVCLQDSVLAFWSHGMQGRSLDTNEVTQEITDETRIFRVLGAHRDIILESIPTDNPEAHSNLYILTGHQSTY

[3] = target: T2, Homeodomain-interacting protein kinase 4 (Homo sapiens) (UniProt Q8NE63); assay: Inhibition of human HIPK4 at 1.82 nM by HotSpot assay relative to control
T2 sequence (whole entry): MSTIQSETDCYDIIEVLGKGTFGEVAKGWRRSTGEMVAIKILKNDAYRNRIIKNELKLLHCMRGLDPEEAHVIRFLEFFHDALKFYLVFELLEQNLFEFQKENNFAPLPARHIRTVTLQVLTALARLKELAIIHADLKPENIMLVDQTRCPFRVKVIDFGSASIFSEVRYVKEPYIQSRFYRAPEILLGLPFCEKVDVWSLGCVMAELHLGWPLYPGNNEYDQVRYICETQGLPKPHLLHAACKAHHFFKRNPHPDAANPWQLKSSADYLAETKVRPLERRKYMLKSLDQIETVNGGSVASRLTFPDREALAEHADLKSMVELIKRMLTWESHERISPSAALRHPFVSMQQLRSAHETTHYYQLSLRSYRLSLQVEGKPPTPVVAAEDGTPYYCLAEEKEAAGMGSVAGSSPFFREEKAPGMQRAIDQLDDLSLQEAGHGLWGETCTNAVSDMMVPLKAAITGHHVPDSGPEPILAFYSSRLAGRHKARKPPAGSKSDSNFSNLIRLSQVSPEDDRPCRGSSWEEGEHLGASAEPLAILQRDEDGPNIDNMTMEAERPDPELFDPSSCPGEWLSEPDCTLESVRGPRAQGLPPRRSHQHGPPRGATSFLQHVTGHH

[4] = target: Activin receptor type-1-like (Homo sapiens) (UniProt P37023); assay: Inhibition of human ALK1 at 1.82 nM by HotSpot assay relative to control
Activin receptor type-1-like (Homo sapiens), sequence (P37023 whole entry): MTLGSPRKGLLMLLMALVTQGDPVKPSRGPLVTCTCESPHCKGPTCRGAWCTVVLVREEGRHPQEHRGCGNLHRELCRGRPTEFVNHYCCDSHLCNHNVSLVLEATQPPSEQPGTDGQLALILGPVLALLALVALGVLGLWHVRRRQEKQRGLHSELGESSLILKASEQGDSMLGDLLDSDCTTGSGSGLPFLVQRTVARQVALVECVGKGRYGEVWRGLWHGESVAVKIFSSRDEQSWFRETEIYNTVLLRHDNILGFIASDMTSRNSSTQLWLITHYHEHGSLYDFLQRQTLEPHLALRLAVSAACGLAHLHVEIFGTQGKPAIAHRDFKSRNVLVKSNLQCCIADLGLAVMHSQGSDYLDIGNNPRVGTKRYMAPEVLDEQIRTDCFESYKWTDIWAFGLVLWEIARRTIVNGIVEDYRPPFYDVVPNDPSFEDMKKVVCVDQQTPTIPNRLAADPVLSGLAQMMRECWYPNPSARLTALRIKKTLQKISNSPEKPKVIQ

[5] = target: Vascular endothelial growth factor receptor 3 (Homo sapiens) (UniProt P35916); assay: Inhibition of human FLT4 at 1.82 nM by HotSpot assay relative to control
Vascular endothelial growth factor receptor 3 (Homo sapiens), sequence (P35916 whole entry): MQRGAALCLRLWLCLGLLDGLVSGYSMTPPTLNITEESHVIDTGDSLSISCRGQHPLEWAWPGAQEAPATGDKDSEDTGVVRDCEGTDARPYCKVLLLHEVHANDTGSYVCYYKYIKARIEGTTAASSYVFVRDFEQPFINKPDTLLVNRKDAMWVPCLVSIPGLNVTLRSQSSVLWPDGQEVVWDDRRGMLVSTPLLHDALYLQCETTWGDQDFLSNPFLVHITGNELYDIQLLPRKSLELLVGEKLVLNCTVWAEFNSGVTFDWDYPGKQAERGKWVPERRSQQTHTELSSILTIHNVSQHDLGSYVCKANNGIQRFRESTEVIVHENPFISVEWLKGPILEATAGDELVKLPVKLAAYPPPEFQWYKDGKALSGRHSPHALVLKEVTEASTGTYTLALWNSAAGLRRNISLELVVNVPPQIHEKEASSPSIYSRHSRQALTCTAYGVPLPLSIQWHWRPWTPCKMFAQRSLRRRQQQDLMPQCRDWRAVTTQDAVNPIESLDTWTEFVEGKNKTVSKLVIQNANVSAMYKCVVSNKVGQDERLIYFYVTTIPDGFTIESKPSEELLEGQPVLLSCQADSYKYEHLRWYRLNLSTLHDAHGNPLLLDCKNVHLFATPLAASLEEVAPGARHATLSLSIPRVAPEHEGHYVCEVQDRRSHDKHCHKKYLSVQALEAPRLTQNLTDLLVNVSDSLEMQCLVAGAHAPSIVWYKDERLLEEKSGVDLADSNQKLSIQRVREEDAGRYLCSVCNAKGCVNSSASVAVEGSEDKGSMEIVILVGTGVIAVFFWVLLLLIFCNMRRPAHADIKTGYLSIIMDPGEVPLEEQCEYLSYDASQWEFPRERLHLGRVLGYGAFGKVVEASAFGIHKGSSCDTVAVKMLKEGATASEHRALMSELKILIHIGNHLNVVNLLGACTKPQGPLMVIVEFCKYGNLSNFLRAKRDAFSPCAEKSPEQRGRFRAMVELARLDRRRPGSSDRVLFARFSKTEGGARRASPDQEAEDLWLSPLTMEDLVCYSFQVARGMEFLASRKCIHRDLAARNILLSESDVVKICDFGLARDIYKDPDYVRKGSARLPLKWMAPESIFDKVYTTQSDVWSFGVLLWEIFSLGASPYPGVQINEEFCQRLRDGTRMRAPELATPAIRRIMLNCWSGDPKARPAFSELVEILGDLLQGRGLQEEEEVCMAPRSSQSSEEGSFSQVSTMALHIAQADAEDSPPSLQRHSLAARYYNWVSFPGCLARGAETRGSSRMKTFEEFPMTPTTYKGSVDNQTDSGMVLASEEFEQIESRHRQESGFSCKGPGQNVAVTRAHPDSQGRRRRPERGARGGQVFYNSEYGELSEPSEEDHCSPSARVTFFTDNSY

[6] = target: Glycogen synthase kinase-3 beta (Homo sapiens) (UniProt P49841); assay: Inhibition of human GSK3b at 1.82 nM by HotSpot assay relative to control
Glycogen synthase kinase-3 beta (Homo sapiens), sequence (P49841 whole entry, looked up): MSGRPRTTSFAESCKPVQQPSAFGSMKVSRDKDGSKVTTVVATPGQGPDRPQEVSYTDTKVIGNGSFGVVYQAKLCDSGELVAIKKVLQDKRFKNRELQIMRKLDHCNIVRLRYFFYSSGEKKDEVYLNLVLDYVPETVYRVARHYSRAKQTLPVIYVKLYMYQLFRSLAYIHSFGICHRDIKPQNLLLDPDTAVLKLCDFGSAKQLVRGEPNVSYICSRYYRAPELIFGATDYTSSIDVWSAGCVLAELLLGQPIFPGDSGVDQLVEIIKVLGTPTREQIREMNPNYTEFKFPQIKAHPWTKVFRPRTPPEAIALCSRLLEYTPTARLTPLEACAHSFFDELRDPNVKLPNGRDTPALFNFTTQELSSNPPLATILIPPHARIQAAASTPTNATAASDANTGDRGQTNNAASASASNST

[7] = target: T3, Serine/threonine-protein kinase ULK1 (Homo sapiens) (UniProt O75385); assay: Inhibition of human ULK1 at 1.82 nM by HotSpot assay relative to control
T3 sequence (whole entry): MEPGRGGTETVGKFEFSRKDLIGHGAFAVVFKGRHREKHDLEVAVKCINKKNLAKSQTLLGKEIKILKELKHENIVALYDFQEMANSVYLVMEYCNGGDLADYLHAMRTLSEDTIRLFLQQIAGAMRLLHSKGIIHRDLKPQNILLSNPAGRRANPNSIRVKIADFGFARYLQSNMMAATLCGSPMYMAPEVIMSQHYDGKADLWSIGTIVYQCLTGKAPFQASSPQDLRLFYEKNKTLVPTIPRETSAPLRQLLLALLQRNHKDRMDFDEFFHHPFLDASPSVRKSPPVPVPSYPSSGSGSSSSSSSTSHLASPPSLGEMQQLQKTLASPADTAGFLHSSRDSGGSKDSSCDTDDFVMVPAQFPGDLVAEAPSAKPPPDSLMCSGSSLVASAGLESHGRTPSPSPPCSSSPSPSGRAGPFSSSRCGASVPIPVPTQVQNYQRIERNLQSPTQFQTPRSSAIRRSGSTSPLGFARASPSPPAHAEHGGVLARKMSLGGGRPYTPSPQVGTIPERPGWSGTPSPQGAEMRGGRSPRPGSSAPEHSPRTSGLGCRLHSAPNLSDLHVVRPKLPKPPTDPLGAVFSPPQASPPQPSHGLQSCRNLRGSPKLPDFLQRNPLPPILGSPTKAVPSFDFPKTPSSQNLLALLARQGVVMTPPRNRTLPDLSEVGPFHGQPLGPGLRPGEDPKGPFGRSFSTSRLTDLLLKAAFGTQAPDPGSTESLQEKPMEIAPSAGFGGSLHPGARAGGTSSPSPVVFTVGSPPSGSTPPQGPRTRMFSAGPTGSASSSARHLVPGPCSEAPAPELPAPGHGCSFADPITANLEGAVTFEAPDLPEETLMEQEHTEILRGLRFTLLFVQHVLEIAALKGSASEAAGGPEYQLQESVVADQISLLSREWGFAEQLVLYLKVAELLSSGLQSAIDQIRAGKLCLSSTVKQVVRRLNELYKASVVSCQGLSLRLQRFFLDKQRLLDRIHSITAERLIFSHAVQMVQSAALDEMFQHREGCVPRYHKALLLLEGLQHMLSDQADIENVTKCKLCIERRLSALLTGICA

[8] = target: Serine/threonine-protein kinase WNK3 (Homo sapiens) (UniProt Q9BYP7); assay: Inhibition of human WNK3 at 18.6 nM by HotSpot assay relative to control
Serine/threonine-protein kinase WNK3 (Homo sapiens), sequence (Q9BYP7 whole entry): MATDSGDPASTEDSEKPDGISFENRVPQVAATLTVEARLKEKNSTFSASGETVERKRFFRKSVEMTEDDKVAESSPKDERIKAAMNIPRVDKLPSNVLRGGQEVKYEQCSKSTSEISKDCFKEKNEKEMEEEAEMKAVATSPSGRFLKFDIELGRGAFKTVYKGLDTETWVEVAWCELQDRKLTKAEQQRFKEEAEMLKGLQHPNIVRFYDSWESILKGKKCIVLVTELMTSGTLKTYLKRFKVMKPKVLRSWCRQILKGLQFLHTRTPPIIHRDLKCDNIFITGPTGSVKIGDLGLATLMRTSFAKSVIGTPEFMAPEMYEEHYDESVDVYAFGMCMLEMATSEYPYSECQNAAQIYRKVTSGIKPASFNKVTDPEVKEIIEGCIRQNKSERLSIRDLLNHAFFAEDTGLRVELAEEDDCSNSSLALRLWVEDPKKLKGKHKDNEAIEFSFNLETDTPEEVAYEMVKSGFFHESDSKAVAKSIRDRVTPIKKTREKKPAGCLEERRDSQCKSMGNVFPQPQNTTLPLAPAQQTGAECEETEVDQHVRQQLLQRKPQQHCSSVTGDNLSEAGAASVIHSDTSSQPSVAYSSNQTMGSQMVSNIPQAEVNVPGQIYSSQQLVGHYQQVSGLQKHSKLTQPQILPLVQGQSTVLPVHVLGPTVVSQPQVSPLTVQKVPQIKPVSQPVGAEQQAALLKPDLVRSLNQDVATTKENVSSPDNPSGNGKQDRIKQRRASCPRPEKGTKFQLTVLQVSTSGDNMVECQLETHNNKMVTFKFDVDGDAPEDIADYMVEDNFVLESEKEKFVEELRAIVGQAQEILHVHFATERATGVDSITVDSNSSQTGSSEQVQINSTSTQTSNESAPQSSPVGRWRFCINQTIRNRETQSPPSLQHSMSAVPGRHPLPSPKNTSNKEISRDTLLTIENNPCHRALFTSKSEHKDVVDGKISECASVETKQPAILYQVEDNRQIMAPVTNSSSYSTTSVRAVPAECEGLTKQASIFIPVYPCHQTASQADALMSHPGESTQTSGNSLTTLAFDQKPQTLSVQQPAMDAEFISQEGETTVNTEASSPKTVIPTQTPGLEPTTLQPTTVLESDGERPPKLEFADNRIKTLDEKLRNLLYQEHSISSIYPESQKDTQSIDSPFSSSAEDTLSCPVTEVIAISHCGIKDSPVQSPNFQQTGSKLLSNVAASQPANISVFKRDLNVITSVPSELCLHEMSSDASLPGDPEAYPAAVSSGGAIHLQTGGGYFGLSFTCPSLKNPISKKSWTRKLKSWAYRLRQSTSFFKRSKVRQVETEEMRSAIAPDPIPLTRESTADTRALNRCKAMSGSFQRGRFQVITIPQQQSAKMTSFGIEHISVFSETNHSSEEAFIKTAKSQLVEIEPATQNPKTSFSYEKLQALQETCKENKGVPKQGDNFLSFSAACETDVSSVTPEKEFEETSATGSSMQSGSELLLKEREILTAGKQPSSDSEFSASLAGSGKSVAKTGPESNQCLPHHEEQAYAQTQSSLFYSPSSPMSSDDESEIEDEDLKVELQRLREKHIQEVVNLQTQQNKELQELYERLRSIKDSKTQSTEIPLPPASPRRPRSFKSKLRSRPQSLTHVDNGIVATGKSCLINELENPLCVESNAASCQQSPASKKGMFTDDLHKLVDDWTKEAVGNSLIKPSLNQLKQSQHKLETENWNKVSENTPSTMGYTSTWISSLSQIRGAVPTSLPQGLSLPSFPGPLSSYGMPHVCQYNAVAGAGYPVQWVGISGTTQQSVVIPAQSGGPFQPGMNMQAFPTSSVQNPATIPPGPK

[9] = target: MAP kinase-interacting serine/threonine-protein kinase 1 (Homo sapiens) (UniProt Q9BUB5); assay: Inhibition of human MNK1 at 18.6 nM by HotSpot assay relative to control
MAP kinase-interacting serine/threonine-protein kinase 1 (Homo sapiens), sequence (Q9BUB5 whole entry, looked up): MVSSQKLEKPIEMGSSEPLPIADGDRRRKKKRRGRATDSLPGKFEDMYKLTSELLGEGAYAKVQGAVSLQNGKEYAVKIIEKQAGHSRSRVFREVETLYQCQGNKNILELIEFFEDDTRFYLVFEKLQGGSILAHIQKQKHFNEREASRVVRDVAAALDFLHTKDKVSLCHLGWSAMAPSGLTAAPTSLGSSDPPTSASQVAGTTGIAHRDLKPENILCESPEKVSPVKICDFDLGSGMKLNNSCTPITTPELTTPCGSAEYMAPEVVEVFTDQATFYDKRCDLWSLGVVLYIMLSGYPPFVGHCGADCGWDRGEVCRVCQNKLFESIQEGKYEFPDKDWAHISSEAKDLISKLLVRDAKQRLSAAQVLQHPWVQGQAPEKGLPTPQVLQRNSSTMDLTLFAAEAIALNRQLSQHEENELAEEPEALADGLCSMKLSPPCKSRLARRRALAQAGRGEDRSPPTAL

Dual specificity mitogen-activated protein kinase kinase 2 (Homo sapiens), sequence (P36507 whole entry): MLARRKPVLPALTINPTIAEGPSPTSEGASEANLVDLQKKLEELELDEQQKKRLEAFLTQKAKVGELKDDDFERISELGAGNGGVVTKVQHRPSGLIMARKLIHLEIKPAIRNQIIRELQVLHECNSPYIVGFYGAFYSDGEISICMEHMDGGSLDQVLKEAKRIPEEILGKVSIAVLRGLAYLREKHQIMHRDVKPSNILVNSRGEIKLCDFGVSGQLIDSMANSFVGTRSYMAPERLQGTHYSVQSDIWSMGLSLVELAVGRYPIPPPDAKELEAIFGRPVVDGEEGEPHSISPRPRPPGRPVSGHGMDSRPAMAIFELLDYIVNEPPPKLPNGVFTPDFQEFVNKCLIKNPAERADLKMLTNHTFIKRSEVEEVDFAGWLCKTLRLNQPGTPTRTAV

SMILES | inhibition [1] | inhibition [2] | inhibition [3] | inhibition [4] | inhibition [5] | inhibition [6] | inhibition [7] | inhibition [8] | inhibition [9]
C[C@@]1(C(=O)Nc2ccc(F)nc2)CCCN1c1nc(Nc2cc(C3CC3)n[nH]2)c2cccn2n1 | 1.78% | -0.04% | -0.23% | 0.3% | -6.12% | 34.6% | 0.76% | – | –
C[C@]1(O)C[C@@H](c2nc(-c3ccc4ccc(-c5ccccc5)nc4c3)c3c(N)nccn32)C1 | – | – | – | – | – | – | – | 6.05% | 0.3%
